This note sets out measurements from BindingDB's records for doi:10.7270/Q2ZG6QNM (University of Pittsburgh, 2008).

This experiment has as its target T1, Serine/threonine-protein kinase D1 (Homo sapiens, UniProt Q15139).
T1 sequence (Q15139 whole entry): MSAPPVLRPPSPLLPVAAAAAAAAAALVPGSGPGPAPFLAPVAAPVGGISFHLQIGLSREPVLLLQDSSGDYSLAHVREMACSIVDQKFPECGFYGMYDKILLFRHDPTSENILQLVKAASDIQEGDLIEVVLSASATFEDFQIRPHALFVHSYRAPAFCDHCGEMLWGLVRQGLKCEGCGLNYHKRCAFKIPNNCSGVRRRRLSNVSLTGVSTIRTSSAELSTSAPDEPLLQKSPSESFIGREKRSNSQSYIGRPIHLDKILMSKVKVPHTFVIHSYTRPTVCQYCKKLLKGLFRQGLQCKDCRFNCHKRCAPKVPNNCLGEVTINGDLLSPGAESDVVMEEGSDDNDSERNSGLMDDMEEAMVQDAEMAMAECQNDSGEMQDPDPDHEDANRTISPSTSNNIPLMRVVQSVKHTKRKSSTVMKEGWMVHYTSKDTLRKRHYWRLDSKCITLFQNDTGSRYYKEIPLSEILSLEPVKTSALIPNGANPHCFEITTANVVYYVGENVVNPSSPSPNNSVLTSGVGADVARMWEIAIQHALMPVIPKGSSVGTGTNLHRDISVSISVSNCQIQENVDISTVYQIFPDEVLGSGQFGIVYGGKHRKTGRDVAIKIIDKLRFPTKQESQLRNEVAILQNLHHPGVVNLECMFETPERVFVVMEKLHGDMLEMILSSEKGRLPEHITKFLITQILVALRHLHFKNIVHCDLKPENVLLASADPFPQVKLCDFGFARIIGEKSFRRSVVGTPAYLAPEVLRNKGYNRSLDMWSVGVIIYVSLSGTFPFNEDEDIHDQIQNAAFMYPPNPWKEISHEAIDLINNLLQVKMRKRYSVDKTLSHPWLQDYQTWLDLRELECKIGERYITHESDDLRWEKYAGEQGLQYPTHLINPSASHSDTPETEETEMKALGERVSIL
Nature of the experiment: fluorescence polarization artefacts, biochemical, 57K campaign, artefact control, dose response (AID 1342). A general note: In fluorescence polarisation assays a small probe gives low polarisation when free and higher when bound to something large.

The IC50 is the midpoint of a concentration-inhibition curve. Lower therefore signals greater potency in that assay. Compound `O=[N+]([O-])c1ccc(Nc2c3ccccc3nc3ccccc23)cc1` [MLS000723809] showed an IC50 of over 50 µM. In the case of `O=C(CSc1ccncc1)Nc1ccc2ccccc2c1` [N-naphthalen-2-yl-2-pyridin-4-ylsulfanylacetamide], the IC50 was over 50 µM. To `CC(N=Nc1ncc(Cl)cc1Cl)c1ccccn1` (stereo not drawn) [3,5-dichloro-N-(1-pyridin-2-ylethylideneamino)pyridin-2-amine] belongs 16.7 µM; to `CCCc1cc(=O)[nH]c(SCCCCN2C(=O)c3ccccc3C2=O)n1` [2-[4-[(4-oxidanylidene-6-propyl-1H-pyrimidin-2-yl)sulfanyl]butyl]isoindole-1,3-dione], over 50 µM; to `COc1ccc(Cn2c(=O)[nH]c3cc(C(=O)NC4CCCC4)ccc3c2=O)cc1` [MLS000730065], over 50 µM. The figure for `COC(=O)c1c(NC(=O)C2C3CCC(C3)C2C(=O)O)sc2c1CCCCC2` (stereo not drawn) [SMR000298221] is over 50 µM; for `O=C(O)c1cc(C(=O)C2CCCCC2)c[nH]1` [4-(cyclohexylcarbonyl)-1H-pyrrole-2-carboxylic acid] it is over 50 µM.

The compound `COc1ccc(CNC(=O)C2Cc3ccccc3CN2C(=O)c2ccco2)cc1` (stereo not drawn) [SMR000343177] gave an IC50 of over 50 µM.

Compound `CC1Cc2ccccc2N1c1ncnc(N)c1[N+](=O)[O-]` (stereo not drawn) [6-(2-methyl-2,3-dihydro-1H-indol-1-yl)-5-nitro-4-pyrimidinamine] showed an IC50 of over 50 µM. For the compound `CSc1ccccc1C(=O)NCc1ccc(F)cc1`, the IC50 was over 50 µM. Regarding `O=C(Nc1ccccc1C(=O)N1CCCC1)C1COc2ccccc2O1` (stereo not drawn) [SMR000287780], the IC50 is over 50 µM. Regarding `O=C1CSCN1c1cc(Cl)ccc1Cl` [3-(2,5-dichlorophenyl)-1,3-thiazolan-4-one], the IC50 was over 50 µM. For the compound `O=C(CSc1ccc2nnc(-c3cccnc3)n2n1)c1ccccc1` [1-phenyl-2-[[3-(3-pyridinyl)-[1,2,4]triazolo[4,3-b]pyridazin-6-yl]thio]ethanone], the IC50 is over 50 µM.

The compound `O=C(NNC1=Nc2cccc3cccc1c23)c1ccc(Br)cc1` [SMR000260645] gave an IC50 of over 50 µM. On to `CCOC(=O)c1sc(=NC(=O)CCS(=O)(=O)c2ccccc2)n(C)c1C` [2-[3-(benzenesulfonyl)-1-oxopropyl]imino-3,4-dimethyl-5-thiazolecarboxylic acid ethyl ester], for which the IC50 was over 50 µM.

Consider `Cc1cc(NC(=O)CCC(=O)N(Cc2ccco2)C(C(=O)NCC2CCCO2)c2ccncc2)no1` (stereo not drawn) [N'-(furan-2-ylmethyl)-N-(5-methyl-1,2-oxazol-3-yl)-N'-[2-oxidanylidene-2-(oxolan-2-ylmethylamino)-1-pyridin-4-yl-ethyl]butanediamide], for which the IC50 was over 50 µM. For the compound `Cn1cccc1C(=O)NC(=O)COC(=O)c1cc(S(=O)(=O)N2CCCCC2)ccc1Cl` [[2-[(1-methylpyrrol-2-yl)carbonylamino]-2-oxidanylidene-ethyl] 2-chloranyl-5-piperidin-1-ylsulfonyl-benzoate], the IC50 was over 50 µM.

Compound `Cc1c(C#N)c(N)nc(Cl)c1C#N` [2-amino-6-chloro-4-methyl-3,5-pyridinedicarbonitrile] yielded an IC50 of over 50 µM.
